Residue numbers refer to the chain shown, from its start. Where a name gives a salt, the structure may show the parent alone. Read-outs that look alike come from different tables or passages of the source.

The target of one test is T1, lysosomal GCase (Homo sapiens, UniProt P04062).
T1 construct: fibroblasts established from a normal subject; endogenous in cells; host or cells: fibroblasts established from a normal subject
T1 sequence (P04062 40-536): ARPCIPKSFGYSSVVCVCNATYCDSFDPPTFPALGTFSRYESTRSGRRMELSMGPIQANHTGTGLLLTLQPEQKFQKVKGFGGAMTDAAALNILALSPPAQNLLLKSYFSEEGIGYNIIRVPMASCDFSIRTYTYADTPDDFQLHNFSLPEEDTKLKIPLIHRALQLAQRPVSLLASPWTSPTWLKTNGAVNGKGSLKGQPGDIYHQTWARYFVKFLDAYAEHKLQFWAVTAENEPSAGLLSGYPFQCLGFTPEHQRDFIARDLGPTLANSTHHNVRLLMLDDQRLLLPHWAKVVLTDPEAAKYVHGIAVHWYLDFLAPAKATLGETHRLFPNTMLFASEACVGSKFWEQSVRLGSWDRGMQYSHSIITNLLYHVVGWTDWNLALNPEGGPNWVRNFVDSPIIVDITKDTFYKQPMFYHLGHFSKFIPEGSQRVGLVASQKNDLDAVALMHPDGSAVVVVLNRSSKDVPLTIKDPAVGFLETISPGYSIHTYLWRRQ
Put plainly: In situ lysosomal GCase inhibition and washout in fibroblasts from a normal subject (PFBFDβGlu substrate). The test is classed as cell-based. The settings on record: for in situ washout: after 16-24 hours at IC90, single exponential fit of activity recovery over 8 hours; for IC50: fibroblasts, compound 16-24 hours, substrate 1 hour. The protocol: The effect of the novel compounds of the present invention on lysosomal GCase activity was assayed in situ using fibroblasts established from a normal subject. Cells seeded in 48-well plates were incubated with the indicated concentrations of compound for 16-24 hours. For the dose-response assays, cells were incubated with the in situ substrate 5-(pentafluorobenzoylamino)fluorescein di-β-D-glucopyranoside (PFBFDβGlu) for 1 hour and subsequently lysed to determine the extent of substrate hydrolysis in the presence of compound. […] Inhibition was determined as the ratio of activity in the presence of compound to that in the absence of compound. […] Cells were washed extensively and incubated in drug-free medium to allow net compound efflux from cells. Cells were then tested for lysosomal GCase activity at 2 hour intervals over a total period of 8 hours following compound removal. The increase in activity over time was fitted with a single exponential function to determine the compound's washout time.

A further test deals with T2, GCase (Homo sapiens, UniProt P04062).
T2 sequence (P04062 40-536): T1 sequence (P04062 40-536)
Put plainly: GCase activity enhancement (EC50, Emax) of Table 2B. The test is classed as cell-based.

Test [1] concerns the target T3, recombinant human GCase (rhGCase; Cerezyme®) (Homo sapiens, UniProt P04062, R534H).
T3 construct: purchased Genzyme Corp
T3 sequence (P04062 40-536 R534H): T1 sequence (P04062 40-536) with R495H
Put plainly: In vitro enzyme inhibition assay (4-MU-β-D-Glc hydrolysis) for IC50 and Ki. The test is classed as biochemical. The settings on record: for Ki: Cheng-Prusoff from IC50. On the procedure: The binding affinity (defined here by Ki binding constant) of GCase for novel compounds of the present invention were empirically determined using enzyme inhibition assays. In brief, the enzyme inhibition assays used monitored the ability of a test compound to bind and prevent the hydrolysis of a fluorogenic substrate in a concentration-dependent manner. Specifically, the enzyme activity of recombinant human GCase (rhGCase; Cerezyme®, Genzyme Corp.) was measured using the 4-methylumbelliferyl-β-D-glucopyranoside (4-MU-β-D-Glc) fluorogenic substrate in the absence or in the presence of varying amounts of each test compound. […] The enzyme inhibition assays were performed at both pH 7.0 (endoplasmic reticulum pH) and at pH 5.2 (lysosomal pH) to gain insight into the binding affinity (i.e., potency) of compounds for GCase in the endoplasmic reticulum and lysososome.
Various concentrations of test compounds were prepared in buffer “M” consisting of 50 mM sodium phosphate buffer with 0.25% sodium taurocholate at pH 7.0 and pH 5.2. Enzyme (Cerezyme®, a recombinant form of the human enzyme β-glucocerebrosidase) was also diluted in the same buffer “M” at pH 7.0 and pH 5.2. […] Five microliters of diluted enzyme was added to 15 μl of the various inhibitor concentrations or buffer “M” alone and incubated at 37° C. for 1 hour with 50 μl of the substrate preparation to assess β-glucosidase activity at pH 7.0 and pH 5.2. […] Fluorescence was measured on a plate reader for 1 sec/well using 355 nm excitation and 460 nm emission.

The mark [2] stands for this setting: pH 5.2 (lysosomal pH), read-out: Ki (μM) pH 5.2.
Setting [3] is: pH 5.2 (lysosomal pH), read-out: IC50 (μM) pH 5.2.
Setting [4] is: pH 7.0 (endoplasmic reticulum pH), read-out: Ki (μM) pH 7.0.
Setting [5] is: pH 7.0 (endoplasmic reticulum pH), read-out: IC50 (μM) pH 7.0.

For the molecule `CC(O)[C@H]1CNC[C@@H](O)[C@@H]1O` (single isomer, unassigned), the “inhibition of GCase activity” value at lysosomal GCase is recorded as “inhibited GCase activity”. Besides, the “GCase activity enhancement compared to reference compound IFG-tartrate” value on GCase (same maximum level as IFG-tartrate at much lower concentration) was “concentration-dependent increase in GCase activity”.

In general, Emax refers to the maximal effect, on the per cent scale that the assay sets. For `CC(O)C1CNCC(O)C1O` (single isomer, unassigned) [Compound 10], the “in situ washout” value at lysosomal GCase came out at 12 ± 1.65 h. Further, the Emax on GCase was 99.3 ± 4.9%.

For `O[C@@H]1[C@@H]([C@H](O)c2ccccc2)CNC[C@H]1O` [(3R,4R,5R)-5-((S)-hydroxy(phenyl)methyl)-piperidine-3,4-diol], on GCase, the Emax was 72.1 ± 3.5%.

Consider `CC(C)(O)[C@H]1CNC[C@@H](O)[C@@H]1O` [(3R,4R,5S)-5-(2-hydroxypropan-2-yl)piperidine-3,4-diol], for which, on GCase, the Emax stood at 109 ± 3.6%.

What is called Ki is a dissociation constant, usually derived from enzyme kinetics or from competition with a known ligand. What is called IC50 is the concentration needed to halve the response being measured. In general, EC50 refers to the midpoint of the concentration-response curve. As for `C[C@@H](O)[C@H]1CNC[C@@H](O)[C@@H]1O` [Compound 9, (3R,4R,5R)-5((R)-1-Hydroxyethyl)piperdine 3,4-diol], the Ki in test [1] (setting [2]) is 0.044 ± 0.0017 µM; in test [1] (setting [4]), 0.01 ± 0.0004 µM. Also, the results for the IC50 (in test [1] (setting [3]); in test [1] (setting [5]); against lysosomal GCase) were 0.107 ± 0.0041 µM, 0.02 ± 0.0008 µM and 518 ± 22 nM, respectively. The “in situ washout” value at lysosomal GCase was 10.5 ± 1.75 h. The EC50 on GCase is 490 ± 60 nM. The “Emax (%)” value at GCase is 83.7 ± 2.9%.

Take `C[C@H](F)[C@H]1CNC[C@@H](O)[C@@H]1O` [Compound 13, (3R,4R,5R)-5((S)-1-Fluoroethyl)piperdine 3,4-diol Hydrochloride]: the Ki amounted to 0.0498 ± 0.0015 µM in test [1] (setting [2]) and 0.009 ± 0.0004 µM in test [1] (setting [4]). Besides, the IC50 in test [1] (setting [3]) was 0.0946 ± 0.0028 µM; in test [1] (setting [5]), 0.0171 ± 0.0008 µM; against lysosomal GCase, 650 ± 172 nM. Moreover, on lysosomal GCase, the “in situ washout” value turned out to be 2.7 ± 0.12 h. Also, the EC50 at GCase worked out at 44 ± 5 nM. The Emax on GCase is 92.8 ± 6.6%.

Regarding `C[C@@H](F)[C@H]1CNC[C@@H](O)[C@@H]1O` [Compound 14, (3R,4R,5R)-5((R)-(1-Fluoroethyl)piperdine 3,4-diol Hydrochloride], the values for the Ki in test [1] (setting [2]) and in test [1] (setting [4]) were 0.016 ± 0.0007 µM and 0.004 ± 0.0001 µM, respectively. The figures for the IC50 (in test [1] (setting [3]); in test [1] (setting [5]); at lysosomal GCase) were 0.038 ± 0.0016 µM, 0.007 ± 0.0003 µM and 61 ± 19 nM, respectively. Further, the “in situ washout” value at lysosomal GCase was determined as 3.7 ± 0.63 h. Also, the EC50 on GCase was 26 ± 3 nM. Moreover, at GCase, the Emax stood at 89.7 ± 3.5%.

(Values after patent US10035766B2, “Compositions for preventing and/or treating lysosomal storage disorders” (Amicus Therapeutics, Inc., priority 2009, dated 2018).)
